Reference: patent publication US20210330611A1, “THERAPY FOR NEUROLOGICAL DISEASES/DISORDERS” (priority 2020, published 2021)
Structures can show the parent of a compound that is named as a salt. Where two headings read alike, the source gives them in different places.

Key:
in vitro [1] = settings: rat
primary rat microglia [2] = settings: rat
primary rat microglia [3] = settings: rat; remark: listed apart in the source
primary rat microglia [4] = experiment: Cell toxicity (dead cells, size <150 μm2) in LPS assay; settings: read-out: Cell Toxicity IC50 (uM) [LPS assay]; LPS assay
[5] = test system: LPS-induced microglia activation; experiment: Image-based assay of LPS-induced microglia activation (HTS and dose response); format: cell-based, rat; settings: Rattus norvegicus, Microglia; for inhibition at 10 µM: read-out: LPS % inhibition
[6] = test system: fibrin-induced microglia activation; experiment: Image-based assay of fibrin-induced microglia activation (HTS and dose response); format: cell-based, rat; settings: for IC50 / inhibition at 10 µM: Rattus norvegicus, Microglia; for inhibition at 10 µM: read-out: Fibrin % inhibition
in vitro [7] = settings: rat, Cell Toxicity IC50 (uM) [cFib assay]
[8] = test system: fibrin- and LPS-induced microglia activation; experiment: cells; format: cell-based, rat; settings: for inhibition at 10 µM: Rattus norvegicus
[9] = 48 h, Table 1, dose response 0.001-20 μM, triplicates, primary rat microglia, 48 h, read-out: LPS IC50
[10] = 48 h, primary microglia HTS, LPS stimulation, increased cell size (>800 μm^2) as marker of activation
[11] = LPS-induced microglia activation, dose response, read-out: LPS IC50 (uM) (Suppl. Table 7)
[12] = Table 3, read-out: LPS IC50 (uM) (Suppl. Table 7)
[13] = dose response, LPS-induced microglia activation, read-out: LPS IC50
[14] = 48 h, Table 1, dose response 0.001-20 μM, triplicates, primary rat microglia, 48 h, read-out: Fibrin IC50
[15] = Table 3, read-out: Fibrin IC50 (uM) (Suppl. Table 7)
[16] = dose response, fibrin-induced microglia activation, read-out: Fibrin IC50
[17] = fibrin-induced microglia activation, dose response, read-out: Fibrin IC50 (uM) (Suppl. Table 7)
[18] = primary microglia HTS, fibrin stimulation, increased cell size (>800 μm^2) as marker of activation
[19] = HTS of 1907 compounds, quadrant by fibrin and LPS inhibition
[20] = Microglia, Table 3, read-out: Cherry-picked Hit (Suppl. Table 7)
[21] = Microglia, HTS hit classification, read-out: Hit
[22] = quadrant by fibrin and LPS inhibition in HTS of 1907 compounds
[23] = hit classification in microglia HTS, read-out: Cherry-picked Hit (Suppl. Table 7)
[24] = read-out: LPS IC50 (uM) (Suppl. Table 7)
[25] = read-out: Fibrin IC50 (uM) (Suppl. Table 7)
[26] = Microglia, read-out: Cherry-picked Hit (Suppl. Table 7)
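For Fibrin % cell toxicity in this document: share of dead cells sized under 150 µm2 at 10 µM in fibrin-stimulated microglia HTS.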

Row | SMILES | IC50 (in vitro [1]) | Fibrin % cell toxicity (primary rat microglia [2]) | LPS % cell toxicity (primary rat microglia [3]) | IC50 [5, 9] | inhibition at 10 µM [5, 10] | IC50 [5, 11] | IC50 [5, 12] | IC50 [5, 13] | IC50 [6, 14] | IC50 [6, 15] | IC50 [6, 16] | IC50 [6, 17] | inhibition at 10 µM [6, 18] | IC50 (in vitro [7]; cFib assay) | Quadrant (FIG. 5b) [8, 19] | inhibition at 10 µM [8, 20] | inhibition at 10 µM [8, 21] | Quadrant (FIG. 5b) ([8]; Table 1, screen at 10 μM) | Quadrant (FIG. 5b) ([8]; Table 3, screen at 10 μM) | Quadrant (FIG. 5b) [8, 22] | also measured
1 | C[C@H]1C[C@@H]2[C@H]([C@@H](O)C[C@@]3(C)[C@H]2CC[C@]3(O)C(=O)CO)[C@@]2(C)C=CC(=O)C=C12 [Methylprednisolone, reference compound] | > 20 µM | 3% | 2% | 0.02 µM | 86% | 0.02 µM | 0.02 µM | 0.02 µM | < 0.001 µM | < 0.001 µM | < 0.001 µM | < 0.001 µM | 110% | > 20 µM | Q2 | > 50% | > 50% | Q2 | Q2 | Q2 | IC50 (primary rat microglia [4]): > 20 µM; IC50 ([5]; Table 7, read-out: LPS_IC50): 0.002 µM; IC50 ([6]; Table 7, read-out: fib_IC50): 0.003 µM; IC50 (in vitro [7]; Table 3): > 20 µM; Quadrant (FIG. 5b) ([8]; Table 2, screen at 10 μM): Q2
2 | O=P(O)(O)C(O)(Cn1ccnc1)P(=O)(O)O [Zoledronic acid, reference compound] | > 20 µM | 2% | 1% | 8 µM | 49% | 8 µM | 8 µM | 8 µM | 2 µM | 2 µM | 2 µM | 2 µM | 83% | > 20 µM | Q3 | > 50% | > 50% | Q3 | Q3 | Q3 | IC50 (primary rat microglia [4]): > 20 µM; Fibrin Selectivity [6]: 4; Fibrin Selectivity (LOG10) [6]: 0.55; IC50 (in vitro [7]; Table 3): > 20 µM
3 | O=c1[nH]cc(F)c(=O)[nH]1 [Fluorouracil, reference compound] | > 20 µM | 1% | 1% | > 20 µM | 40% | > 20 µM | > 20 µM | > 20 µM | 7 µM | 7 µM | 7 µM | 7 µM | 56% | > 20 µM | Q3 | > 50% | > 50% | Q3 | Q3 | Q3 | IC50 (primary rat microglia [4]): > 20 µM; Fibrin Selectivity [6]: 3; Fibrin Selectivity (LOG10) [6]: 0.44; IC50 (in vitro [7]; Table 3): > 20 µM
4 | CC(CN(C)C)CN1c2ccccc2CCc2ccccc21 (centres unmarked) [Trimipramine maleate, reference compound] | 12 µM | 1% | 5% | 5 µM | 92% | 5 µM | – | 5 µM | 7 µM | – | 7 µM | 7 µM | 52% | > 20 µM | Q2 | – | > 50% | Q2 | – | Q2 | inhibition at 10 µM [8, 23]: > 50%
5 | C#CCN[C@@H]1CCc2ccccc21 [Rasagiline, reference compound] | > 20 µM | 1% | 1% | – | – | – | – | – | – | – | – | – | – | – | – | – | – | – | – | – | inhibition at 10 µM ([5]; 48 h): 28%; IC50 ([5]; 48 h, read-out: LPS IC50): > 20 µM; IC50 ([5]; read-out: LPS IC50 (uM)): > 20 µM; IC50 [5, 24]: > 20 µM; IC50 ([6]; 48 h, read-out: Fibrin IC50): 20 µM; inhibition at 10 µM [6]: 76%; IC50 ([6]; read-out: Fibrin IC50 (uM)): 20 µM; IC50 [6, 25]: 20 µM; IC50 (in vitro [7]): > 20 µM; Quadrant (FIG. 5b) [8]: Q3; inhibition at 10 µM [8, 26]: > 50%; inhibition at 10 µM ([8]; Microglia, read-out: Hit): > 50%
6 | COC(=O)Nc1nc2ccc(C(=O)c3ccccc3)cc2[nH]1 [Mebendazole, reference compound] | > 20 µM | 1% | 2% | 6 µM | 72% | 6 µM | 6 µM | 6 µM | 0.2 µM | 0.2 µM | 0.2 µM | 0.2 µM | 57% | – | Q2 | > 50% | > 50% | Q2 | Q2 | Q2 | Fibrin Selectivity [6]: 31; Fibrin Selectivity (LOG10) [6]: 1.49; IC50 (in vitro [7]): > 20 µM
7 | CCN(CC)CCNc1ccc(CO)c2sc3ccccc3c(=O)c12 [Hycanthone, reference compound] | 11 µM | 2% | 2% | 1 µM | 71% | 1 µM | – | 1 µM | 1 µM | – | 1 µM | 1 µM | 103% | – | Q2 | – | > 50% | Q2 | – | Q2 | IC50 ([5]; Table 7, read-out: LPS_IC50): 0.354 µM; IC50 ([6]; Table 7, read-out: fib_IC50): 0.619 µM; IC50 (in vitro [7]): > 20 µM; inhibition at 10 µM [8, 23]: > 50%; Activity ([8]; Table 7, fib = fibrin, LPS, tox = toxicity): fib/LPS
8 | CO[C@H]1C[C@H](O[C@@H]2/C(C)=C/C[C@@H]3C[C@@H](C[C@]4(CC[C@H](C)[C@@H](C5CCCCC5)O4)O3)OC(=O)[C@@H]3C=C(C)/C(=N/O)[C@H]4OC/C(=C\C=C\[C@@H]2C)[C@]43O)O[C@@H](C)[C@@H]1O [Selamectin, reference compound] | > 20 µM | 1% | 1% | – | – | – | – | – | – | – | – | – | – | – | – | – | – | – | – | – | inhibition at 10 µM ([5]; 48 h): 42%; IC50 ([5]; 48 h, read-out: LPS IC50): > 20 µM; IC50 ([5]; read-out: LPS IC50 (uM)): > 20 µM; IC50 [5, 24]: > 20 µM; Fibrin Selectivity [6]: 3; Fibrin Selectivity (LOG10) [6]: 0.51; IC50 ([6]; 48 h, read-out: Fibrin IC50): 6 µM; inhibition at 10 µM [6]: 51%; IC50 ([6]; read-out: Fibrin IC50 (uM)): 6 µM; IC50 [6, 25]: 6 µM; IC50 (in vitro [7]): > 20 µM; Quadrant (FIG. 5b) [8]: Q3; inhibition at 10 µM [8, 26]: > 50%; inhibition at 10 µM ([8]; Microglia, read-out: Hit): > 50%
9 | CC(=O)O[C@]1(C(C)=O)CC[C@H]2[C@@H]3C=C(C)C4=CC(=O)CC[C@]4(C)[C@H]3CC[C@@]21C [Megestrol acetate, reference compound] | > 20 µM | 1% | – | > 20 µM | 24% | > 20 µM | > 20 µM | > 20 µM | 5 µM | 5 µM | 5 µM | 5 µM | – | > 20 µM | Q3 | > 50% | > 50% | Q3 | Q3 | – | IC50 (primary rat microglia [4]): > 20 µM; Fibrin Selectivity [6]: 4; Fibrin Selectivity (LOG10) [6]: 0.63; IC50 (in vitro [7]; Table 3): > 20 µM
10 | O=c1[nH]c2ccccc2n1C1CCN(CCCC(c2ccc(F)cc2)c2ccc(F)cc2)CC1 [Pimozide, reference compound] | > 20 µM | 2% | 0% | 18 µM | 45% | 18 µM | – | 18 µM | > 20 µM | – | > 20 µM | > 20 µM | 70% | > 20 µM | Q3 | – | > 50% | Q3 | – | Q3 | inhibition at 10 µM [8, 23]: > 50%
11 | C[C@@H](O)[C@H]1C(=O)N2C(C(=O)O)=C(SCCN=CN)C[C@H]12 [Imipenem, reference compound] | > 20 µM | 1% | 0% | – | – | – | – | – | – | – | – | – | – | – | – | – | – | – | – | – | IC50 ([5]; 48 h, read-out: LPS IC50): > 20 µM; IC50 ([5]; read-out: LPS IC50 (uM)): > 20 µM; IC50 [5, 24]: > 20 µM; IC50 ([6]; 48 h, read-out: Fibrin IC50): > 20 µM; IC50 ([6]; read-out: Fibrin IC50 (uM)): > 20 µM; IC50 [6, 25]: > 20 µM; IC50 (in vitro [7]): > 20 µM; Quadrant (FIG. 5b) [8]: Q3; inhibition at 10 µM [8, 26]: > 50%; inhibition at 10 µM ([8]; Microglia, read-out: Hit): > 50%
